Test results as given in ChEMBL document CHEMBL1201862, “PubChem BioAssay data set” (2004).
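Results reflect a 48-hour exposure of cells in 96-well plates to compound at five concentrations. The concentration for 50% growth inhibition is given as GI50.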 The source made the active and inactive calls. Cut-off read from the data, not from the text of the source: active = GI50 up to about 1.1 µM and inactive = higher.

Key:
Assay in all cases: NCI-60 cell line screen, 48 h
[1] = system: OVCAR-5
[2] = system: T47D
[3] = system: 786-0
[4] = system: MDA-N
[5] = system: TK-10
[6] = system: EKVX
[7] = system: SNB-19
[8] = system: HCT-15
[9] = system: U-251
[10] = system: HT-29
[11] = system: HOP-92
[12] = system: IGROV-1
[13] = system: HCT-116
[14] = system: A549
[15] = system: OVCAR-8
[16] = system: SF-268
[17] = system: NCI-H226
[18] = system: NCI-H522
[19] = system: MDA-MB-435
[20] = system: SK-MEL-2
[21] = system: K562
[22] = system: M14
[23] = system: MDA-MB-231
[24] = system: COLO 205
[25] = system: HOP-62
[26] = system: A498
[27] = system: KM12
[28] = system: UACC-62
[29] = system: ACHN
[30] = system: CCRF-CEM
[31] = system: Hs-578T
[32] = system: RXF 393
[33] = system: SF-539
[34] = system: SK-MEL-28
[35] = system: BT-549
[36] = system: OVCAR-3
[37] = system: RPMI-8226
[38] = system: LOX IMVI
[39] = system: PC-3
[40] = system: SK-OV-3
[41] = system: MOLT-4
[42] = system: HL-60
[43] = system: SNB-75
[44] = system: CAKI-1
[45] = system: NCI-H460
[46] = system: SN12C
[47] = system: SF-295
[48] = system: SW-620
[49] = system: UACC-257
[50] = system: NCI/ADR-RES
[51] = system: Malme-3M
[52] = system: OVCAR-4
[53] = system: SK-MEL-5
[54] = system: SR
[55] = system: UO-31
[56] = system: NCI-H23
[57] = system: DU-145

CC(=O)/C=C1\Nc2ccccc2N\C1=C/C(C)=O
GI50 [1]: 28.8 µM (inactive) | GI50 [2]: 19.5 µM (inactive) | GI50 [3]: 18.5 µM (inactive) | GI50 [4]: 29.9 µM (inactive) | GI50 [5]: 19.4 µM (inactive) | GI50 [6]: 27.5 µM (inactive) | GI50 [7]: 38.5 µM (inactive) | GI50 [8]: 24.3 µM | GI50 [9]: 23.8 µM (inactive) | GI50 [10]: 20.1 µM (inactive) | GI50 [11]: 24.4 µM (inactive) | GI50 [12]: 18.8 µM (inactive) | GI50 [13]: 16.9 µM (inactive) | GI50 [14]: 21.5 µM (inactive) | GI50 [15]: 24.7 µM (inactive) | GI50 [16]: 23.5 µM (inactive) | GI50 [17]: 21.4 µM (inactive) | GI50 [18]: 11.1 µM (inactive) | GI50 [19]: 26.4 µM (inactive) | GI50 [20]: 20.6 µM (inactive) | GI50 [21]: 26.6 µM (inactive) | GI50 [22]: 21.6 µM (inactive) | GI50 [23]: 22 µM (inactive) | GI50 [24]: 23.2 µM (inactive) | GI50 [25]: 27.3 µM (inactive) | GI50 [26]: 27.2 µM (inactive) | GI50 [27]: 24 µM (inactive) | GI50 [28]: 20.1 µM (inactive) | GI50 [29]: 22.6 µM (inactive) | GI50 [30]: 17.2 µM (inactive) | GI50 [31]: 29.9 µM (inactive) | GI50 [32]: 19.1 µM (inactive) | GI50 [33]: 30.3 µM (inactive) | GI50 [34]: 41.7 µM (inactive) | GI50 [35]: 35 µM (inactive) | GI50 [36]: 17.5 µM (inactive) | GI50 [37]: 19.5 µM (inactive) | GI50 [38]: 24.5 µM (inactive) | GI50 [39]: 37.9 µM (inactive) | GI50 [40]: 30.6 µM (inactive) | GI50 [41]: 14.5 µM (inactive) | GI50 [42]: 23.9 µM (inactive) | GI50 [43]: 26.9 µM (inactive) | GI50 [44]: 60.8 µM (inactive) | GI50 [45]: 16.5 µM (inactive) | GI50 [46]: 25.7 µM (inactive) | GI50 [47]: 26.5 µM (inactive) | GI50 [48]: 35.7 µM (inactive) | GI50 [49]: 20.3 µM (inactive) | GI50 [50]: 29 µM (inactive) | GI50 [51]: 23 µM (inactive) | GI50 [52]: 19 µM (inactive) | GI50 [53]: 16.8 µM (inactive) | GI50 [54]: 25.1 µM (inactive) | GI50 [55]: 36.6 µM (inactive) | GI50 [56]: 31.2 µM (inactive) | GI50 [57]: 30 µM (inactive)
